The nature of data set [1]: Toxicity in rat. It counts as organism-based. Particulars: in vivo.
In data set [2] the test system is Bacillus subtilis. In words: Antibacterial activity against Bacillus subtilis at 5 umol/L. It is filed as functional.

A word on the LD50: it is the dose expected to kill half of the subjects tested. A low value points to a more toxic substance.

In data set [1], `CCCCC[C@@H](O)CCO` showed an LD50 of 20000 mg/kg. Moreover, the Activity in data set [2] is 50%.

These data come from ChEMBL document CHEMBL1157982, “Isolation, identification, and enantioselective synthesis of octane-1,3,7-triol: determination of its absolute configuration” (J Nat Prod, 1999).
